Measured values taken from patent publication US12060360B2, “Lysyl oxidase inhibitors” (The Institute of Cancer Research: Royal Cancer Hospital, priority 2017, dated 2024).

How the values were obtained:
[1] = test system: MDA-MB-231 human breast adenocarcinoma; assay: MDA-MB-231 xenografts, primary tumour volume T/C; format: in vivo; conditions: 200 mg/kg po qd, ratio of average tumour volume treated/vehicle control, p<0.05
Method: (§1) All procedures involving animals were approved by the Animal Welfare and Ethical Review Body of the Institute of Cancer Research and Cancer Research UK Manchester Institute in accordance with National Home Office regulations under the Animals (Scientific Procedures) Act 1986 and according to the guidelines of the Committee of the National Cancer Research Institute Tumour size was determined by caliper measurements of tumour length, width and depth and volume was calculated as volume=0.5236×length×width×depth (mm).
MDA-MB-231 xenografts. Ncr nude female mice at 6 weeks old from Charles River were injected into the third upper nipple mammary fat pad with MDA-MB-231 Luc 4×10^6 in 100 ul PB (50:50 Matrigel). When tumours reach a mean of 80 mm^3 around 10 days post cell inoculation the animals are allocated in 4 groups of 8. LOX inhibitor treatment is then administrated by oral gavage dosing, at 0.2 ml/20 g bodyweight once daily for up to 28 consecutive days. Tumours and weights are measured twice weekly using calipers and the animals can be imaged using non invasive method by bioluminescence using IVIS 200 imaging machine, weekly using 150 mg/kg luciferin administrate intraperitoneal or subcutaneous. At the end of the study the animals are culled, and samples taken, fixed or snap frozen in liquid nitrogen. Frozen samples kept at −80 degree centigrade until being analyzed and the fixed samples stained according to desired marker.
(§2) For therapeutic efficacy assessment, the ratio of average tumour volume between compound treated and vehicle control treated (T/C) is calculated. Reduction in tumour volume in the compound treated group compared to vehicle-treated control group results in T/C<1. The efficacy of LOX inhibitors described in this invention, as measured by T/C in a pancreatic cancer model, a colorectal cancer model and a breast cancer model is shown in Table 2 and is significant (p<0.05) for all the data presented.

LOX = target: T1, LOX (Mus musculus, UniProt P28301); assay: LOX activity in cysts assay (LOX-roGFP2 biosensor, MDCK cysts); format: cell-based; conditions: MDCK cysts; for IC50: roGFP2 ratio at basal surface, read-out: LOX biosensor IC50 (cyst)
T1 construct: Full length LOX cDNA was then PCR cloned into pEGFP-N1 (Clonetech), or biosensor vector proGFP2-N1; expressed in transfected cells; host or cells: MDCK cells grown as cysts on Matrigel, G418-selected
T1 sequence (P28301 163-411): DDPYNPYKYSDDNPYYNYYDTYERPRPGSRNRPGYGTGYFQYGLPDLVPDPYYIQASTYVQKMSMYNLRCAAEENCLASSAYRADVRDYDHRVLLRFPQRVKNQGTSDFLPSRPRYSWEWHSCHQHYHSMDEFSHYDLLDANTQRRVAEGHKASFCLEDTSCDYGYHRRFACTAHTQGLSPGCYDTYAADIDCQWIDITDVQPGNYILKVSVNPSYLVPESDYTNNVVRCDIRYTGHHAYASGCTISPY
Method in brief: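 Live MDCK cysts grown 10 days on Matrigel and expressing mouse LOX fused to the roGFP2 redox biosensor, with inhibitors added 30 min before confocal imaging. Oxidised/reduced ratio (405/488 nm excitation, 500–530 nm emission) at the basal cyst surface taken as LOX activity. DMSO defines 0% and 1 mM BAPN 100% inhibition.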

[2] = test system: PDAC TRP53R172H (p53 mut) cells (mouse pancreatic carcinoma); assay: PDAC allografts, primary tumour volume T/C; format: in vivo; conditions: ratio of average tumour volume treated/vehicle control, p<0.05
Method: as §1
PDAC allografts: CD1 nu/nu female mice at 6 weeks of age were inoculated subcutaneously in the right flank with 2×10^6 PDAC TRP53R172H (p53 mut) cells at 100 ul suspension per animal. In some examples, the oral dosing by metal gavage commences one day after cells inoculation, at 0.2 ml/20 g bodyweight per animal once daily for 2-4 weeks, with compound dissolved in 5.25% tween20/saline or 5% DMSO/water. In other examples, groups of 7-8 mice were assigned to treatment following stratified allocation of tumour volumes with a median size of circa 100 mm^3. […] Control animals received a similar dosage of vehicle (5.25% tween20/saline). Tumours and weights are measured twice weekly using calipers. At the end of the study the animals are culled, and samples taken, fixed or snap frozen in liquid nitrogen. Frozen samples kept at −80 degree centigrade until being analysed and the fixed samples stained according to the desired marker.
as §2

[3] = test system: MMTV-PyMT breast transgenic model primary tumour; assay: MMTV-PyMT transgenic mouse breast cancer model, primary tumour T/C; format: in vivo; conditions: 200 mg/kg po qd; ratio of average tumour volume treated/vehicle control; p<0.05
Method: as §1
(§3) MMTV-PyMT (Guy et al, 1992) (FVB) female mice were randomized by non-statistical methods to LOX inhibitor treatment groups from day 70 post-birth, when animals had no detectable tumour. Mice were treated daily by oral gavage with LOX inhibitor in vehicle, or daily vehicle (5% DMSO/2.5% Tween20 in water) by oral gavage. Tumour size was determined unblinded by caliper measurements of tumour length, width and depth and volume was calculated as 0.5236×length×width×depth (mm). In all experiments, mice were humanely killed and mammary tumours and lungs were collected when the primary tumours reached ethical limits or signs of ill health.
as §2

[4] = test system: MMTV-PyMT breast transgenic model lung metastases; assay: MMTV-PyMT transgenic mouse breast cancer model, lung metastases quantification T/C; format: in vivo; conditions: 200 mg/kg po qd, treated/vehicle control, p<0.05; for T/C MMT-PyMT breast transgenic model - metastases b) Area: lung metastases area; for T/C MMT-PyMT breast transgenic model - metastases a) Count: lung metastases number
Method: as §3
For lung metastases quantification, all mouse tissue samples were fixed in 10% formalin (Sigma) and embedded in paraffin. Samples were sectioned and hematoxylin and eosin (H&E) stained. Samples were imaged with a Leica CN400 slide scanner. Lung metastases were manually selected using Pen tool in ImageScope. Lung metastases number was counted and area was measured using ImageScope. The investigator was blinded to the experimental groups. The ratio of average metastases surface between compound treated and vehicle control treated (TIC) is calculated. The ratio of average metastases numbers between compound treated and vehicle control treated (T/C) is also calculated. Reduction in metastases area and/or in metastatses number in the compound treated group compared to vehicle-treated control group results in T/C<1. The antimetastatic efficacy of LOX inhibitors described in this invention, as measured by T/C in a model of breast cancer metastasising to lungs is shown in Table 2 and is significant (p<0.05) for all the data presented.

[5] = test system: SW620 human colorectal carcinoma cells (mutant RAS); assay: SW620 xenografts, primary tumour volume T/C; format: in vivo; conditions: 200 mg/kg po qd; ratio of average tumour volume treated/vehicle control; p<0.05
Method: as §1
SW620 xenografts: NCr mice were inoculated subcutaneously in the right flank with 5×10^6 SW620 cells at 100 ul suspension per animal. Groups of 7-8 mice were assigned to treatment following stratified allocation of tumour volumes with a median size of circa 100 mm^3. […] Tumours and weights are measured twice weekly using calipers. […] Frozen samples are kept at −80 degree centigrade until being analysed and the fixed samples stained according to the desired marker.
as §2, with “Reduction in tumour volume in the compound treated group compared to vehicle-treated control group results in T/C<1.” left out

CCOc1ccc(N2C[C@H]3CN(C(=O)NCCS(C)(=O)=O)C[C@@H]2C(C)(C)C3)cc1 [Example 13, (1S,5S)-6-(4-ethoxyphenyl)-9,9-dimethyl-N-(2-(methylsulfonyl)ethyl)-3,6-diazabicyclo[3.2.2]nonane-3-carboxamide]
response vs control in vivo at 200 mg/kg [1]: 63%
IC50 (LOX): 1020 nM
T/C PDAC R172H (p53 mut) (mouse pancreatic carcinoma) - primary tumour ([2]; 100 mg/kg bid): 0.56

CCOc1ccc(N2C[C@H]3CN(C(=O)NCCc4c[nH]cn4)C[C@@H]2C(C)(C)C3)cc1 [Example 26, (1S,5S)-N-(2-(1H-imidazol-4-yl)ethyl)-6-(4-ethoxyphenyl)-9,9-dimethyl-3,6-diazabicyclo[3.2.2]nonane-3-carboxamide]
IC50 (LOX): 340 nM
T/C PDAC R172H (p53 mut) (mouse pancreatic carcinoma) - primary tumour ([2]; 200 mg/kg po qd): 0.46

CCOc1ccc(N2C[C@H]3CN(C(=O)NCCO)C[C@@H]2C(C)(C)C3)cc1 [Example 12, (1S,5S)-N-(2-hydroxyethyl)-6-(4-ethoxyphenyl)-9,9-dimethyl-3,6-diazabicyclo[3.2.2]nonane-3-carboxamide]
T/C MMT-PyMT breast transgenic model - primary tumour [3]: 0.26
IC50 (LOX): 890 nM
T/C PDAC R172H (p53 mut) (mouse pancreatic carcinoma) - primary tumour ([2]; 200 mg/kg po qd): 0.47

CC1(C)C[C@@H]2CN(C(=O)N3CCOCC3)C[C@H]1N(c1ccc(N3CCS(=O)(=O)CC3)cc1)C2 [Example 10, ((1S,5S)-6-(4-(1,1-dioxidothiomorpholino)phenyl)-9,9-dimethyl-3,6-diazabicyclo[3.2.2]nonan-3-yl)(morpholino)methanone]
response vs control in vivo at 200 mg/kg [1]: 39%
T/C MMT-PyMT breast transgenic model - metastases b) Area [4]: b) 0.0006
T/C MMT-PyMT breast transgenic model - metastases a) Count [4]: a) 0.02
T/C MMT-PyMT breast transgenic model - primary tumour [3]: 0.11
inhibition at 10 µM (LOX; 10 uM, inhibitor added 30 min prior to imaging, DMSO = 0%, BAPN 1 mM = 100% inhibition, read-out: LOX biosensor inhibition (cyst) @ 10 uM): 100%
IC50 (LOX): < 180 nM

CC1(C)C[C@@H]2CN(C(=O)N3CCS(=O)(=O)CC3)C[C@H]1N(c1ccc(N3CCS(=O)(=O)CC3)cc1)C2 [Example 8, (1,1-dioxidothiomorpholino)((1S,5S)-6-(4-(1,1-dioxidothiomorpholino)phenyl)-9,9-dimethyl-3,6-diazabicyclo[3.2.2]nonan-3-yl)methanone]
response vs control in vivo at 200 mg/kg [1]: 54%
T/C MMT-PyMT breast transgenic model - metastases b) Area [4]: b) 0.012
T/C MMT-PyMT breast transgenic model - metastases a) Count [4]: a) 0.1
T/C MMT-PyMT breast transgenic model - primary tumour [3]: 0.22
T/C SW620 human colorectal carcinoma cells (mutant RAS) - primary tumour [5]: 0.48
inhibition at 2.5 µM (LOX; 2.5 uM (stated in cell), DMSO = 0%, BAPN 1 mM = 100% inhibition, read-out: LOX biosensor inhibition (cyst) @ 2.5 uM): 100%
IC50 (LOX): 540 nM
